From patent EP0109340A2, “Acid salts of 2-piperazinopyrimidine, process for their preparation and pharmaceutical compositions containing them” (priority 1982, dated 1984)

Assays:
[1] = test system: comportement de rotation chez la souris après lésion unilatérale du striatum; assay: rotation behaviour after unilateral 6-hydroxydopamine lesion of the striatum (dopaminergic mechanism); type: in vivo, souris femelles Charles River CD1; details: oral, dose corresponding to 0,15 mg/kg free base; for activité dans le temps (rotations): course over 1, 3 and 6 h; for activité dans le temps (rotations) / somme algébrique des rotations ipsilatérales et contralatérales à la lésion: result in words; for somme algébrique des rotations ipsilatérales et contralatérales à la lésion: versus controls
Text: Le mécanisme dopaminergique d'un composé représentatif de l'invention, la 2-(1-pipérazinyl)pyrimidine mcno-L (+) - tartrate, a été étudié en comparaison avec la base libre correspondante et son chlorhydrate par l'analyse du comportement de rotation chez la souris après lésion unilatérale du striatum (P. Protais et al. J. Pharmacol. 1976, 7, 251).
Des souris femelles Charles River CD1 pesant de 20 à 24 g ont préalablement fait l'objet d'une lésion unilatérale du striatum par injection stéréotaxique de 6-hydroxydopamine à raison de 8 mcg par animal. Une semaine après cette opération, la 2-(1-pipérazinyl)pyrimidine mono-L(+)-tartrate, la 2-(l-pipérazinyl)pyrimidine chlorhydrate et la base libre ont été administrées par voie orale à des groupes de 6 souris à une dose correspondant à 0,15 mg/kg de base libre. Le nombre de rotations à été évalué, pendant 2 minutes, 1, 3 et 6 heures après l'administration des trois produits. Les rotations ipsilatérales à la lésion ont été comptées positivement, celles contralatérales ont été comptées négativement. La somme algébrique des rotations pour chaque groupe d'animaux traités a été comparée à celle du groupe d'animaux témoins n'ayant reçu que le véhicule (sérum physiologique).
Le Tableau IV ci-dessous montre la variation pour cent, par rapport aux animaux témoins, des rotations.

[2] = test system: toxicité de groupe due à l'amphétamine; assay: antagonism of amphetamine group toxicity (predictive of antipsychotic action); type: in vivo, souris Charles Fiver CD1; details: Mus musculus, ip; median effective dose against mortality due to amphetamine 30 mg/kg i.p.; compound i.p. 30 min before; mortality over 24 h; confidence limits 10,1 - 26,7; read-out: DE50 (limites de confiance)
Text: L'activité antipsychotique d'un composé représentatif, le monomaléate de 2-(1-pipérazinyl)pyrimidine, a été déterminée dans le test de l'antagonisme de la toxicité de groupe due à l'amphétamine (J.H. Burn et al., Arch. Int. Pharmacodyn. Ther. 1958, 113, 290).
Le monomaléate de 2-(1-pipérazinyl)pyrimidine a Été administré à des doses croissantes par voie intrapéritonéale à des lots de 10 souris Charles Fiver CD1 pesant 20-22 g et groupées dans des cages de 22 cm de long, 12 cm de large et 12 cm de haute. Trente minutes après l'administration, on a injecté par voie intrapéritonéale de l'amphétamine à la dose de 30 mg/kg. La mortalité des animaux a été évaluée durant les 24 h qui ont suivi l'injection d'amphétamine et comparée, dans chaque groupe, à celle du groupe d'animaux témoins n'ayant reçu que le véhicule (sérum ghysiologigue).
Le tableau ci-dessous montre la dose efficace médiane (DE5G) d'antagonisme de la mortalité due à l'amphétamine.

[3] = test system: catalepsie provoquée par la prochlorpérazine; assay: antagonism of the onset of prochlorperazine-induced catalepsy (cork test, predictive of antidepressant activity); type: in vivo, rats mâles Wistar; details: 1 h before prochlorperazine 10 mg/kg s.c., read 5 h later
Text: L'activité antidépressive des composés de l'invention a été évaluée dans le test de l'antagonisme vis-à-vis de l'installation de la catalepsie provoquée par la prochlorpérazine (K. Eizière et al., Arzneimittel Forschung, 1982, 32 (II), 824).
Un composé représentatif de l'invention, à savoir le monomaléate de 2-(1-pipérazinyl)pyrimidine, a été administré par voie intrapéritonéale à des groupes de 10 rats mâles Wistar pesant 220-240 g; des animaux de contrôle ont été en même temps traités par du sérum physiologique. Une heure après, les animaux ont reçu, par voie sous-cutanée, de la prochlcrpérazine à une dose de 10 mg/kg. Cinq heures après cette administration, le nombre d'animaux cataleptiques a été estimé par le test du bouchon. Ce test consiste à positionner les animaux de telle sorte qu'ils puissent maintenir pendant au moins 20 seconds leurs pattes en appui sur une colonne formée de trois bouchons de liège superposés (hauteur totale 11 cm). Les performances réalisées pour chaque groupe d'animaux ont été comparées à celles du groupe d'animaux témoins n'ayant reçu que le véhicule et la prcchlorpérazine.
Le tableau ci-dessous montre le pourcentage d'antagonisme de l'installation de la catalepsie provoquée par la prochlorpérazine.

[4] = free base, tested within a series of compounds; literature; cited from earlier work

SMILES | variation négative (variation pour cent des rotations par rapport aux animaux témoins) ([1]; 6th hour) [%] | activité dans le temps (rotations) [1] | ED50 [2] [mg/kg] | % d'antagonisme ([3]; dose 0,1 mg/kg i.p.) [%] | % d'antagonisme ([3]; dose 1 mg/kg i.p.) [%] | somme algébrique des rotations ipsilatérales et contralatérales à la lésion [1] | activité analgésique ou antifilariale [4]
c1cnc(N2CCNCC2)nc1 [2-(1-pipérazinyl)pyrimidine monc-L(+)-tartrate] [mono-L(+)-tartratede 2-(1-pipérazinyl)pyrimidine] | > 100 | son activité augmente significativement dans le temps |  |  |  |  | 
c1cnc(N2CCNCC2)nc1 [2-(1-pipérazinyl)pyrimidine monomaléate, monomaléatede 2-(l-pipérazinyl)pyrimidine] |  |  | 16.5 | 20 | 80 |  | 
c1cnc(N2CCNCC2)nc1 [base libre, 2-(1-pipérazinyl)pyrimidine] |  | tendence à la diminution de l'activité dans le temps |  |  |  | réduit d'une façon significative | aucun n'a montré d'activité analgésique ou antifilariale
c1cnc(N2CCNCC2)nc1 [chlorhydrate, 2-(l-pipérazinyl)pyrimidine chlorhydrate] |  | inactif aussi dans le temps |  |  |  | n'a pas d'effet significatif | 
